Laboratory results taken from US7759337B2, “Phthalazine compounds and methods of use” (Amgen Inc., priority 2005, dated 2010).

System: production of TNF by monocytes activated with bacterial lipopolysaccharide (LPS)
Assay: Lipopolysaccharide-activated monocyte TNF production assay
Format: cell-based
Details: Homo sapiens; whole blood monocyte assay (LPS induced TNF release)
How it was run: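 Adherent human PBMC-derived monocytes preincubated 60 min with nine two-fold compound dilutions, then stimulated with E. coli K532 LPS (30 ng/mL in the added medium) for 4 h at 37 °C. Supernatant TNF measured by sandwich ELISA; IC50 is the compound concentration halving TNF production, from second-order polynomial fits.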

Row | SMILES | IC50
1 | Cc1ccc(C(=O)NC2CCC2)cc1-c1ccc2c(N3CCN4C(=O)OC[C@@H]4C3)nncc2c1 [Example 269, 3-{1-[(8aS)-3-oxotetrahydro[1,3]oxazolo[3,4-a]pyrazin-7(1H)-yl]phthalazin-6-yl}-N-cyclobutyl-4-methylbenzamide] | ≤ 5 µM
2 | Cc1ccc(C(N)=O)cc1-c1ccc2c(N3CCCOCC3)nncc2c1 [Example 270, 4-methyl-3-[1-(1,4-oxazepan-4-yl)phthalazin-6-yl]benzamide] | ≤ 5 µM
3 | Cc1ccc(C(=O)NC2CC2)cc1-c1ccc2c(N3CCNC(=O)[C@@H]3C)nncc2c1 [Example 271, N-cyclopropyl-4-methyl-3-{1-[(2S)-2-methyl-3-oxopiperazin-1-yl]phthalazin-6-yl}benzamide] | ≤ 5 µM
4 | Cc1ccc(C(=O)NC2CC2)cc1-c1ccc2c(N3CCC[C@H]3C(F)(F)F)nncc2c1 [Example 273, N-cyclopropyl-4-methyl-3-{1-[(2S)-2-(trifluoromethyl)pyrrolidin-1-yl]phthalazin-6-yl}benzamide] | ≤ 5 µM
5 | Cc1ccc(C(=O)NC2CC2)cc1-c1ccc2c(N3CCN4CCC[C@H]4C3)nncc2c1 [Example 274, 3-{1-[(8aS)-hexahydropyrrolo[1,2-a]pyrazin-2(1H)-yl]phthalazin-6-yl}-N-cyclopropyl-4-methylbenzamide] | ≤ 5 µM
6 | Cc1ccc(C(=O)NC2CC2)cc1-c1ccc2c(N3CCNC(=O)CC3)nncc2c1 [Example 275, N-cyclopropyl-4-methyl-3-[1-(5-oxo-1,4-diazepan-1-yl)phthalazin-6-yl]benzamide] | ≤ 5 µM
7 | Cc1ccc(C(=O)NC2CC2)cc1-c1cnc2c(N3CCOCC3)nncc2c1 [Example 276, N-cyclopropyl-4-methyl-3-(8-morpholin-4-ylpyrido[2,3-d]pyridazin-3-yl)benzamide] | ≤ 5 µM
8 | Cc1ccc(C(N)=O)cc1-c1ccc2c(N3CCNC(=O)CC3)nncc2c1 [Example 277, 4-methyl-3-[1-(5-oxo-1,4-diazepan-1-yl)phthalazin-6-yl]benzamide] | ≤ 5 µM
9 | CONC(=O)c1ccc(C)c(-c2ccc3c(N4CCOCC4)nncc3c2)c1 [Example 278, N-methoxy-4-methyl-3-(1-morpholin-4-ylphthalazin-6-yl)benzamide] | ≤ 5 µM
10 | CONC(=O)c1ccc(C)c(-c2ccc3c(NC(C)C)nncc3c2)c1 [Example 279, 3-[1-(isopropylamino)phthalazin-6-yl]-N-methoxy-4-methylbenzamide] | ≤ 5 µM
11 | Cc1ccc(C(N)=O)cc1-c1ccc2c(N3CCN4C(=O)OC[C@@H]4C3)nncc2c1 [Example 280, 3-{1-[(8aS)-3-oxotetrahydro[1,3]oxazolo[3,4-a]pyrazin-7(1H)-yl]phthalazin-6-yl}-4-methylbenzamide] | ≤ 5 µM
12 | Cc1ccc(C(N)=O)cc1-c1ccc2c(N(C)C)nncc2c1 [Example 281, 3-[1-(dimethylamino)phthalazin-6-yl]-4-methylbenzamide] | ≤ 5 µM
13 | Cc1ccc(C(N)=O)cc1-c1ccc2c(N3CCN4CCC[C@H]4C3)nncc2c1 [Example 282, 3-{1-[(8aS)-hexahydropyrrolo[1,2-a]pyrazin-2(1H)-yl]phthalazin-6-yl}-4-methylbenzamide] | ≤ 5 µM
14 | Cc1ccc(C(=O)NC2CCC2)cc1-c1ccc2c(N(C)C)nncc2c1 [Example 283, N-cyclobutyl-3-[1-(dimethylamino)phthalazin-6-yl]-4-methylbenzamide] | ≤ 5 µM
15 | Cc1ccc(C(N)=O)cc1-c1ccc2c(N3CCN4C(=O)OC[C@H]4C3)nncc2c1 [Example 284, 3-{1-[(8aR)-3-oxotetrahydro[1,3]oxazolo[3,4-a]pyrazin-7(1H)-yl]phthalazin-6-yl}-4-methylbenzamide] | ≤ 5 µM
16 | Cc1ccc(C(N)=O)cc1-c1ccc2c(N3CCN4C(=O)CC[C@H]4C3)nncc2c1 [Example 285, 3-{1-[(8aS)-6-oxohexahydropyrrolo[1,2-a]pyrazin-2(1H)-yl]phthalazin-6-yl}-4-methylbenzamide] | ≤ 5 µM
17 | Cc1ccc(C(=O)NC2CC2)cc1-c1ccc2c(-c3ccc(F)cc3C)nncc2c1 [Example 286, N-cyclopropyl-3-[1-(4-fluoro-2-methylphenyl)phthalazin-6-yl]-4-methylbenzamide] | ≤ 5 µM
18 | Cc1ccc(C(=O)NC2CC2)cc1-c1ccc2c(-c3c[nH]c(=O)cc3C)nncc2c1 [Example 287, N-cyclopropyl-4-methyl-3-[1-(4-methyl-6-oxo-1,6-dihydropyridin-3-yl)phthalazin-6-yl]benzamide] | ≤ 5 µM
19 | Cc1ccc(C(=O)NC2CC2)cc1-c1ccc2c(O)nncc2c1 [Example 288, N-cyclopropyl-3-(1-hydroxyphthalazin-6-yl)-4-methylbenzamide] | ≤ 5 µM
20 | Cc1ccc(C(=O)NC2CC2)cc1-c1ccc2c(N(C)C3CCCCC3)nncc2c1 [Example 289, 3-{1-[cyclohexyl(methyl)amino]phthalazin-6-yl}-N-cyclopropyl-4-methylbenzamide] | ≤ 5 µM
21 | Cc1ccc(C(=O)NC2CC2)cc1-c1ccc2c(N(C)C(C)C)nncc2c1 [Example 290, N-cyclopropyl-3-{1-[isopropyl(methyl)amino]phthalazin-6-yl}-4-methylbenzamide] | ≤ 5 µM
22 | Cc1ccc(C(N)=O)cc1-c1ccc2c(N(C)C3CCCCC3)nncc2c1 [Example 291, 3-{1-[cyclohexyl(methyl)amino]phthalazin-6-yl}-4-methylbenzamide] | ≤ 5 µM
23 | Cc1ccc(C(N)=O)cc1-c1ccc2c(N(C)C(C)C)nncc2c1 [Example 292, 3-{1-[isopropyl(methyl)amino]phthalazin-6-yl}-4-methylbenzamide] | ≤ 5 µM
24 | Cc1ccc(C(=O)NC2CC2)cc1-c1ccc2c(N3CCC[C@H]3C(C)C)nncc2c1 [Example 293, N-cyclopropyl-3-{1-[(2S)-2-isopropylpyrrolidin-1-yl]phthalazin-6-yl}-4-methylbenzamide] | ≤ 5 µM
25 | Cc1ccc(C(N)=O)cc1-c1ccc2c(N3CCn4c(nnc4C(F)(F)F)C3)nncc2c1 [Example 294, 4-methyl-3-{1-[3-(trifluoromethyl)-5,6-dihydro[1,2,4]triazolo[4,3-a]pyrazin-7(8H)-yl]phthalazin-6-yl}benzamide] | ≤ 5 µM
26 | Cc1ccc(C(=O)NC2CC2)cc1-c1ccc2c(N3CCC[C@@H]3C)nncc2c1 [Example 295, N-cyclopropyl-4-methyl-3-{1-[(2S)-2-methylpyrrolidin-1-yl]phthalazin-6-yl}benzamide] | ≤ 5 µM
27 | Cc1ccc(C(=O)NC2CC2)cc1-c1ccc2c(N3CCC[C@H]3C)nncc2c1 [Example 296, N-cyclopropyl-4-methyl-3-{1-[(2R)-2-methylpyrrolidin-1-yl]phthalazin-6-yl}benzamide] | ≤ 5 µM
28 | Cc1ccc(C(=O)NC2CC2)cc1-c1ccc2c(NC[C@H]3CCCO3)nncc2c1 [Example 297, N-cyclopropyl-4-methyl-3-(1-{[(2R)-tetrahydrofuran-2-ylmethyl]amino}phthalazin-6-yl)benzamide] | ≤ 5 µM
29 | CC[C@H](C)Nc1nncc2cc(-c3cc(C(=O)NC4CC4)ccc3C)ccc12 [Example 298, N-cyclopropyl-4-methyl-3-(1-{[(1S)-1-methylpropyl]amino}phthalazin-6-yl)benzamide] | ≤ 5 µM
30 | Cc1ccccc1Oc1nncc2cc(-c3cc(C(N)=O)ccc3C)ccc12 [Example 299, 4-methyl-3-[1-(2-methylphenoxy)phthalazin-6-yl]benzamide] | ≤ 5 µM
